Source: patent US7494984B2, “Substituted imidazo[1,2-a]pyrimidines as HIV viral DNA integrase inhibitors” (priority 2005, dated 2009)

Tested on: not given
Assay: not given
Settings: not given

SMILES	melting point
COCCN1CCn2c1nc(C(=O)NCc1ccc(F)cc1)c(O)c2=O [Example 29, N-(4-Fluorobenzyl)-6-hydroxy-1-(2-methoxyethyl)-5-oxo-1,2,3,5-tetrahydroimidazo[1,2-a]pyrimidine-7-carboxamide]	166 °C
CNC(=O)c1cc(F)ccc1CNC(=O)c1nc2n(c(=O)c1O)CCN2C(C)C [Example 6, N-(4-Fluoro-2-(methylcarbamoyl)benzyl)-6-hydroxy-1-isopropyl-5-oxo-1,2,3,5-tetrahydroimidazo[1,2-a]pyrimidine-7-carboxamide]	205 °C (dec.)
O=C(NCc1ccc(F)cc1)c1nc2n(c(=O)c1O)CCN2CCO [Example 30, N-(4-Fluorobenzyl)-6-hydroxy-1-(2-hydroxyethyl)-5-oxo-1,2,3,5-tetrahydroimidazo[1,2-a]pyrimidine-7-carboxamide]	203 °C
Cc1ncnn1-c1cc(F)ccc1CNC(=O)c1nc2n(c(=O)c1O)CCN2C(C)C [Example 10, N-(4-Fluoro-2-(5-methyl-1H-1,2,4-triazol-1-yl)benzyl)-6-hydroxy-1-isopropyl-5-oxo-1,2,3,5-tetrahydroimidazo[1,2-a]pyrimidine-7-carboxamide]	212 °C
CCCCN1CCn2c1nc(C(=O)NCc1ccc(F)cc1C(=O)NC)c(O)c2=O [Example 13, N-(4-Fluoro-2-(methylcarbamoyl)benzyl)-1-butyl-6-hydroxy-5-oxo-1,2,3,5-tetrahydroimidazo[1,2-a]pyrimidine-7-carboxamide]	175 to 177 °C
O=C(NCc1ccc(F)cc1-n1cncn1)c1nc2n(c(=O)c1O)CCN2Cc1ccccc1 [Example 19, N-(4-Fluoro-2-(1H-1,2,4-triazol-1-yl)benzyl)-1-benzyl-6-hydroxy-5-oxo-1,2,3,5-tetrahydroimidazo[1,2-a]pyrimidine-7-carboxamide]	242 °C (dec.)
O=C(NCc1ccc(F)cc1-n1cncn1)c1nc2n(c(=O)c1O)CCN2CCO [Example 31, N-(4-Fluoro-2-(1H-1,2,4-triazol-1-yl)benzyl)-6-hydroxy-(2-hydroxyethyl)-5-oxo-1,2,3,5-tetrahydroimidazo[1,2-a]pyrimidine-7-carboxamide]	220 to 222 °C

Target: T1, HIV-integrase (Human immunodeficiency virus type 1 group M subtype B, UniProt P12497)
T1 construct: Recombinant integrase (0.26 ng) was incubated with the beads
Assay: HIV-Integrase Inhibition Activity (SPA strand transfer assay)
Type: biochemical
Settings: recombinant integrase, biotin labeled substrate DNA on SPA beads, P33 labeled target DNA; read-out: Activity (IC50 class, HIV-integrase inhibition)
Procedure: HIV-Integrase Inhibition Activity. To evaluate in-vitro activity against HIV-integrase, 5 pmole of biotin labeled substrate DNA was bound to 100 μg of Streptavidin coated PVT SPA beads (Amersham Pharmacia Biotech). Recombinant integrase (0.26 ng) was incubated with the beads for 90 min at 37° C. Unbound enzyme was removed by washing the complex followed by addition of inhibitors and 0.1 fmol of P33 labeled target DNA. The reaction was stopped by adding EDTA to a final concentration of 10 mM. Samples were counted in TopCountNXT (Packard) and the CPM was used as a measure of integration. The reaction condition was as described in A. Engelman and R. Craigie, J. Virol. 69, 5908-5911 (1995). The sequences of substrate and target DNA were described in Nucleic Acid Research 22,1121-1122 (1994). Activity equal to A refers to a compound having IC50=0.005 to 0.010 μM while B and C denote compounds having IC50=0.010 to 0.030 μM and IC50>0.030 μM respectively.

SMILES	IC50 [µM]
COCCN1CCn2c1nc(C(=O)NCc1ccc(F)cc1)c(O)c2=O [Example 29, N-(4-Fluorobenzyl)-6-hydroxy-1-(2-methoxyethyl)-5-oxo-1,2,3,5-tetrahydroimidazo[1,2-a]pyrimidine-7-carboxamide]	0.01 to 0.03
CS(=O)(=O)c1cc(F)ccc1CNC(=O)c1nc2n(c(=O)c1O)CCN2c1ccccc1 [Example 40]	0.005 to 0.01
CCCCN1CCn2c1nc(C(=O)NCc1ccc(F)cc1S(=O)(=O)N(C)C)c(O)c2=O [Example 14, N-(4-Fluoro-2-(N,N-dimethylsulfamoyl)benzyl)-1-butyl-6-hydroxy-5-oxo-1,2,3,5-tetrahydroimidazo[1,2-a]pyrimidine-7-carboxamide]	0.01 to 0.03
CN(C)S(=O)(=O)c1cc(F)ccc1CNC(=O)c1nc2n(c(=O)c1O)CCN2c1ccccc1 [Example 26, N-(4-Fluoro-2-(N,N-dimethylsulfamoyl)benzyl)-6-hydroxy-5-oxo-1-phenyl-1,2,3,5-tetrahydroimidazo[1,2-a]pyrimidine-7-carboxamide]	0.01 to 0.03
Cc1cc(CNC(=O)c2nc3n(c(=O)c2O)CCN3C2CCCCC2)ccc1F [Example 33]	0.005 to 0.01
CNC(=O)c1cc(F)ccc1CNC(=O)c1nc2n(c(=O)c1O)CCN2C(C)C [Example 6, N-(4-Fluoro-2-(methylcarbamoyl)benzyl)-6-hydroxy-1-isopropyl-5-oxo-1,2,3,5-tetrahydroimidazo[1,2-a]pyrimidine-7-carboxamide]	0.01 to 0.03
O=C(NCc1ccc(F)cc1)c1nc2n(c(=O)c1O)CCN2C1CCCCC1 [Example 32]	0.005 to 0.01
COCCN1CCn2c1nc(C(=O)NCc1ccc(F)cc1-n1cncn1)c(O)c2=O [Example 37]	0.01 to 0.03
O=C(NCc1ccc(F)cc1)c1nc2n(c(=O)c1O)CCN2CCO [Example 30, N-(4-Fluorobenzyl)-6-hydroxy-1-(2-hydroxyethyl)-5-oxo-1,2,3,5-tetrahydroimidazo[1,2-a]pyrimidine-7-carboxamide]	0.01 to 0.03
Cc1ncn(-c2cc(F)ccc2CNC(=O)c2nc3n(c(=O)c2O)CCN3c2ccccc2)n1 [Example 24, N-(4-Fluoro-2-(3-methyl-1H-1,2,4-triazol-1-yl)benzyl)-6-hydroxy-5-oxo-1-phenyl-1,2,3,5-tetrahydroimidazo[1,2-a]pyrimidine-7-carboxamide]	0.005 to 0.01
Cc1ncnn1-c1cc(F)ccc1CNC(=O)c1nc2n(c(=O)c1O)CCN2C(C)C [Example 10, N-(4-Fluoro-2-(5-methyl-1H-1,2,4-triazol-1-yl)benzyl)-6-hydroxy-1-isopropyl-5-oxo-1,2,3,5-tetrahydroimidazo[1,2-a]pyrimidine-7-carboxamide]	> 0.03
CN(C)S(=O)(=O)c1cc(F)ccc1CNC(=O)c1nc2n(c(=O)c1O)CCN2C1CCCCC1 [Example 35]	0.01 to 0.03
Cc1cc(CNC(=O)c2nc3n(c(=O)c2O)CCN3Cc2ccccc2)ccc1F [Example 17, N-(4-Fluoro-3-methylbenzyl)-1-benzyl-6-hydroxy-5-oxo-1,2,3,5-tetrahydroimidazo[1,2-a]pyrimidine-7-carboxamide]	0.01 to 0.03
CCCCN1CCn2c1nc(C(=O)NCc1ccc(F)cc1C(=O)NC)c(O)c2=O [Example 13, N-(4-Fluoro-2-(methylcarbamoyl)benzyl)-1-butyl-6-hydroxy-5-oxo-1,2,3,5-tetrahydroimidazo[1,2-a]pyrimidine-7-carboxamide]	0.01 to 0.03
O=C(NCc1ccc(F)cc1-n1cncn1)c1nc2n(c(=O)c1O)CCN2Cc1ccccc1 [Example 19, N-(4-Fluoro-2-(1H-1,2,4-triazol-1-yl)benzyl)-1-benzyl-6-hydroxy-5-oxo-1,2,3,5-tetrahydroimidazo[1,2-a]pyrimidine-7-carboxamide]	0.01 to 0.03
CC(C)N1CCn2c1nc(C(=O)NCc1ccc(F)cc1-n1cncn1)c(O)c2=O [Example 7, N-(4-Fluoro-2-(1H-1,2,4-triazol-1-yl)benzyl)-6-hydroxy-1-isopropyl-5-oxo-1,2,3,5-tetrahydroimidazo[1,2-a]pyrimidine-7-carboxamide]	0.01 to 0.03
CC(C)N1CCn2c1nc(C(=O)NCc1ccc(F)cc1)c(O)c2=O [Example 4, N-(4-Fluorobenzyl)-6-hydroxy-1-isopropyl-5-oxo-1,2,3,5-tetrahydroimidazo[1,2-a]pyrimidine-7-carboxamide]	0.01 to 0.03
O=C(NCc1ccc(F)cc1N1CCC1=O)c1nc2n(c(=O)c1O)CCN2c1ccccc1 [Example 28, N-(4-Fluoro-2-(2-oxoazetidin-1-yl)benzyl)-6-hydroxy-5-oxo-1-phenyl-1,2,3,5-tetrahydroimidazo[1,2-a]pyrimidine-7-carboxamide]	0.005 to 0.01

SMILES	IC50 [µM]
O=C(NCc1ccc(F)cc1-n1cncn1)c1nc2n(c(=O)c1O)CCN2CCO [Example 31, N-(4-Fluoro-2-(1H-1,2,4-triazol-1-yl)benzyl)-6-hydroxy-(2-hydroxyethyl)-5-oxo-1,2,3,5-tetrahydroimidazo[1,2-a]pyrimidine-7-carboxamide]	0.01 to 0.03
CNC(=O)c1cc(F)ccc1CNC(=O)c1nc2n(c(=O)c1O)CCN2CCOC [Example 36]	0.01 to 0.03
CCCCN1CCn2c1nc(C(=O)NCc1ccc(F)cc1)c(O)c2=O [Example 11, N-(4-Fluorobenzyl)-1-butyl-6-hydroxy-5-oxo-1,2,3,5-tetrahydroimidazo[1,2-a]pyrimidine-7-carboxamide]	0.005 to 0.01
O=C(NCc1ccc(F)cc1)c1nc2n(c(=O)c1O)CCN2c1ccccc1 [Example 20, N-(4-Fluorobenzyl)-6-hydroxy-5-oxo-1-phenyl-1,2,3,5-tetrahydroimidazo[1,2-a]pyrimidine-7-carboxamide]	0.005 to 0.01
CNC(=O)c1cc(F)ccc1CNC(=O)c1nc2n(c(=O)c1O)CCN2c1ccccc1 [Example 22, N-(4-Fluoro-2-(methylcarbamoyl)benzyl)-6-hydroxy-5-oxo-1-phenyl-1,2,3,5-tetrahydroimidazo[1,2-a]pyrimidine-7-carboxamide]	0.01 to 0.03
O=C(NCc1ccc(F)cc1-n1cncn1)c1nc2n(c(=O)c1O)CCN2c1ccccc1 [Example 23, N-(4-Fluoro-2-(1H-1,2,4-triazol-1-yl)benzyl)-6-hydroxy-5-oxo-1-phenyl-1,2,3,5-tetrahydroimidazo[1,2-a]pyrimidine-7-carboxamide]	0.005 to 0.01
Cc1cc(CNC(=O)c2nc3n(c(=O)c2O)CCN3c2ccccc2)ccc1F [Example 21, N-(4-Fluoro-3-methylbenzyl)-6-hydroxy-5-oxo-1-phenyl-1,2,3,5-tetrahydroimidazo[1,2-a]pyrimidine-7-carboxamide]	0.005 to 0.01
COCCN1CCn2c1nc(C(=O)NCc1ccc(F)cc1S(=O)(=O)N(C)C)c(O)c2=O [Example 38]	> 0.03
Cc1ncnn1-c1cc(F)ccc1CNC(=O)c1nc2n(c(=O)c1O)CCN2c1ccccc1 [Example 25, N-(4-Fluoro-2-(5-methyl-1H-1,2,4-triazol-1-yl)benzyl)-6-hydroxy-5-oxo-1-phenyl-1,2,3,5-tetrahydroimidazo[1,2-a]pyrimidine-7-carboxamide]	0.01 to 0.03
COCCN1CCn2c1nc(C(=O)NCc1ccc(F)cc1-n1cnc(C)n1)c(O)c2=O [Example 39]	> 0.03
O=C(NCc1ccc(F)cc1-n1cncn1)c1nc2n(c(=O)c1O)CCN2C1CCCCC1 [Example 34]	0.005 to 0.01
CCCCN1CCn2c1nc(C(=O)NCc1ccc(F)cc1-n1cncn1)c(O)c2=O [Example 41]	0.01 to 0.03
Cc1ncn(-c2cc(F)ccc2CNC(=O)c2nc3n(c(=O)c2O)CCN3C(C)C)n1 [Example 9, N-(4-Fluoro-2-(3-methyl-1H-1,2,4-triazol-1-yl)benzyl)-6-hydroxy-1-isopropyl-5-oxo-1,2,3,5-tetrahydroimidazo[1,2-a]pyrimidine-7-carboxamide]	0.01 to 0.03
CC(C)N1CCn2c1nc(C(=O)NCc1ccc(F)cc1S(=O)(=O)N(C)C)c(O)c2=O [Example 8, N-(4-Fluoro-2-(N,N-dimethylsulfamoyl)benzyl)-6-hydroxy-1-isopropyl-5-oxo-1,2,3,5-tetrahydroimidazo[1,2-a]pyrimidine-7-carboxamide]	0.005 to 0.01
O=C(NCc1ccc(F)cc1N1CCCC1=O)c1nc2n(c(=O)c1O)CCN2c1ccccc1 [Example 27, N-(4-Fluoro-2-(2-oxopyrrolidin-1-yl)benzyl)-6-hydroxy-5-oxo-1-phenyl-1,2,3,5-tetrahydroimidazo[1,2-a]pyrimidine-7-carboxamide]	0.01 to 0.03
Cc1cc(CNC(=O)c2nc3n(c(=O)c2O)CCN3C(C)C)ccc1F [Example 5, N-(4-Fluoro-3-methylbenzyl)-6-hydroxy-1-isopropyl-5-oxo-1,2,3,5-tetrahydroimidazo[1,2-a]pyrimidine-7-carboxamide]	0.01 to 0.03
CNC(=O)c1cc(F)ccc1CNC(=O)c1nc2n(c(=O)c1O)CCN2C [Example 3, N-(4-Fluoro-2-(methylcarbamoyl)benzyl)-6-hydroxy-1-methyl-5-oxo-1,2,3,5-tetrahydroimidazo[1,2-a]pyrimidine-7-carboxamide]	0.01 to 0.03
CCCCN1CCn2c1nc(C(=O)NCc1ccc(F)c(C)c1)c(O)c2=O [Example 12, N-(4-Fluoro-3-methylbenzyl)-1-butyl-6-hydroxy-5-oxo-1,2,3,5-tetrahydroimidazo[1,2-a]pyrimidine-7-carboxamide]	0.01 to 0.03
